# What was measured:
# [1] = test system: SORHA (johnsongrass (seedling)); assay: Pre-plant incorporated (PPI) herbicidal activity, warm season; assay type: in vivo, Sorghum halepense; conditions: for Percent inhibition SORHA / inhibition at 10 g/ha / inhibition at 30 g/ha / inhibition at 100 g/ha / inhibition at 300 g/ha / inhibition at 900 g/ha: PPI application; for PPI activity GR80, SORHA: pre-plant incorporated, lowest tested rate with 80% or greater inhibition, about 14 days; for inhibition at 10 g/ha / inhibition at 30 g/ha / inhibition at 100 g/ha / inhibition at 300 g/ha / inhibition at 900 g/ha: Sorghum halepense, read-out: Percent inhibition SORHA
# Method: In another set of tests, the pre-plant incorporated (PPI) activity of compounds of this invention was evaluated on the same species as for the pre-emergence tests described above. In the PPI tests the following procedure, designed to simulate PPI application, was used.
# (§1) A pre-prepared topsoil mixture (described above) was placed in a pot and compacted to a depth of 1.0 to 1.25 cm from the top of the pot. Seeds of each of several monocotyledonous and dicotyledonous annual plant species were placed on top of the soil. A sufficient quantity of soil to cover the seeds and level fill the pot was weighed into an open container. A known amount of the test compound was dissolved or suspended in an organic solvent and applied by spraying to this cover soil. The cover soil was thoroughly mixed to distribute the test compound throughout the cover soil, and was then applied as a cover layer over the seeds. Untreated soil was used as a cover layer for control pots. After treatment the plants were placed in a greenhouse where they received 0.64 cm of overhead irrigation. All subsequent watering consisted of a light overhead mist and/or subirrigation as needed for germination and growth. Tables 9 and 10 below relate to warm season plant species which were placed after pre-emergence treatment in a greenhouse with a 30/21° C. day/night temperature regime. Tables 11 and 12 below relates to cool season plant species placed after pre-emergence treatment in a greenhouse or growth chamber with an 18/13° C. day/night temperature regime. Only the compounds of Examples 1, 6, 8, 11, 13 and 15-20 were included in PPI tests.
# (§2) Approximately 14 days after planting and treating, the plants were observed and herbicidal efficacy recorded as percent inhibition by comparison with untreated plants.
# [2] = test system: AGRRE (quackgrass (seedling)); assay: Post-emergence herbicidal activity, cool season; assay type: in vivo, Elymus repens; conditions: abraded plants sprayed at 300, 100, 30 and 10 g/ha; about 14 days after treatment
# Procedure, shortened: (§3)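 Seeds sown in topsoil, covered with 50% topsoil/50% Rediearth™, subirrigated. At 9 to 14 days, foliage abraded, then sprayed at 300, 100, 30 or 10 g/ha in acetone/water 50:50. Plants held at 18/13° C. day/night, rated for % inhibition at ~14 days, GR80 assigned.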
# [3] = test system: CIRAR (canada thistle (seedling)); assay: Pre-emergence herbicidal activity, warm season; assay type: in vivo, Cirsium arvense; conditions: GR80 = lowest tested rate (300, 100, 30, 10 g/ha) with 80% or greater inhibition; approx. 14 days after treating; 30/21° C.
# Procedure, shortened: (§4)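 GR80 values derive from percent inhibition relative to untreated plants, read roughly 14 days after sowing and pre-emergence soil-surface treatment (compound in 50:50 acetone/water; rates typically 10, 30, 100, 300 g/ha). Warm-season weeds grew at 30/21° C day/night, cool-season ones at 18/13° C; an asterisk marks activity without reaching 80% at the highest rate.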
# soybean (GLYMX) = assay: Selectivity test, PPI, warm season crop; assay type: in vivo, Glycine max; conditions: PPI application; for inhibition at 10 g/ha / inhibition at 30 g/ha / inhibition at 100 g/ha / inhibition at 300 g/ha / inhibition at 900 g/ha: Glycine max, read-out: Percent inhibition GLYMX
# Method: as §1, §2
# Additional pre-emergence and PPI tests were conducted by the procedures described above, on warm and cool season weed species in the presence of crop species, to assess herbicidal selectivity. Crop species included in warm season tests were corn (Zea mays, ZEAMX), rice (Oryza sativa, ORYSA) and soybean (Glycine max, GLYMX). Crop species included in cool season tests were wheat (Triticum aestivum, TRZAW), barley (Hordeunm vulgare, HORVX) and oilseed rape (Brassica napus, BRSNS).
# Tables 15 and 16 relate to pre-emergence and PPI tests respectively on warm season species. Table 17 relates to pre-emergence tests on cool season species.
# BROTE (downy brome) = assay: Post-emergence herbicidal activity, cool season; assay type: in vivo, Bromus tectorum; conditions: abraded plants sprayed at 300, 100, 30 and 10 g/ha; about 14 days after treatment
# Procedure, shortened: as §3
# SASKR (russian thistle) = assay: Pre-emergence herbicidal activity, cool season; assay type: in vivo, Salsola kali; conditions: lowest tested rate with 80% or greater inhibition; rates 300, 100, 30, 10 g/ha; about 14 days
# Procedure, shortened: as §4
SMILES,Percent inhibition SORHA ([1]; 30 g/ha) [%],Percent inhibition SORHA ([1]; 100 g/ha) [%],Percent inhibition SORHA ([1]; 300 g/ha) [%],Percent inhibition SORHA ([1]; 900 g/ha) [%],"Post-emergence activity GR80, AGRRE [2]",Pre-emergence activity (GR80) CIRAR [3] [g/ha],Percent inhibition GLYMX (soybean (GLYMX); 30 g/ha) [%],Percent inhibition GLYMX (soybean (GLYMX); 100 g/ha) [%],Percent inhibition GLYMX (soybean (GLYMX); 300 g/ha) [%],Percent inhibition GLYMX (soybean (GLYMX); 900 g/ha) [%],"Post-emergence activity GR80, BROTE (BROTE (downy brome))","Pre-emergence activity GR80, SASKR (SASKR (russian thistle))",Percent inhibition SORHA ([1]; 10 g/ha) [%],"PPI activity GR80, SORHA [1] [g/ha]",Percent inhibition GLYMX (soybean (GLYMX); 10 g/ha) [%],inhibition at 10 g/ha ([1]; 10 g/ha) [%],inhibition at 30 g/ha ([1]; 30 g/ha) [%],inhibition at 100 g/ha ([1]; 100 g/ha) [%],inhibition at 300 g/ha ([1]; 300 g/ha) [%],inhibition at 900 g/ha ([1]; 900 g/ha) [%],also measured
CCN(CC)C(=O)n1cnc(S(=O)(=O)C(F)(F)SC)n1 [Example 9],100,100,100,100,[empty],100,0,10,20,40,[empty],300 g/ha,–,–,–,–,–,–,–,–,–
CCN(CC)C(=O)n1cnc(S(=O)(=O)C(F)(F)SCC(=O)OC)n1 [Example 11],0,30,80,100,[empty],300,0,0,10,30,[empty],300 g/ha,0,300,0,–,–,–,–,–,–
C=C(Br)CC(F)(F)S(=O)(=O)c1ncn(C(=O)N(CC)CC)n1 [Example 19],–,–,–,–,[empty],300,–,–,–,–,[empty],100 g/ha,–,100,–,60,80,100,100,100,inhibition at 10 g/ha (soybean (GLYMX); 10 g/ha): 0%; inhibition at 30 g/ha (soybean (GLYMX); 30 g/ha): 0%; inhibition at 100 g/ha (soybean (GLYMX); 100 g/ha): 0%; inhibition at 300 g/ha (soybean (GLYMX); 300 g/ha): 0%; inhibition at 900 g/ha (soybean (GLYMX); 900 g/ha): 20%
CCN(CC)C(=O)n1cnc(S(=O)(=O)C(F)(F)SCc2ccccc2)n1 [Example 10],0,50,100,100,[empty],300,0,0,10,70,[empty],100 g/ha,0,–,0,–,–,–,–,–,–
C=C(C)CC(F)(F)S(=O)(=O)c1ncn(C(=O)N(CC)CC)n1 [Example 18],–,–,–,–,[empty],300,–,–,–,–,[empty],300 g/ha,–,300,–,100,100,100,100,100,inhibition at 10 g/ha (soybean (GLYMX); 10 g/ha): 0%; inhibition at 30 g/ha (soybean (GLYMX); 30 g/ha): 0%; inhibition at 100 g/ha (soybean (GLYMX); 100 g/ha): 0%; inhibition at 300 g/ha (soybean (GLYMX); 300 g/ha): 0%; inhibition at 900 g/ha (soybean (GLYMX); 900 g/ha): 50%
C=C(CC(F)(F)S(=O)(=O)c1ncn(C(=O)N(CC)CC)n1)C[Si](C)(C)C [Example 20],0,20,80,80,[empty],100,0,0,0,30,[empty],[empty],–,100,0,–,–,–,–,–,–

# From patent US6461997B1, “Triazole sulfones having herbicidal activity” (Monsanto Technology LLC, priority 1999, dated 2002)
